In ChEMBL document CHEMBL4613276, “Discovery of New 1,1'-Biphenyl-4-sulfonamides as Selective Subnanomolar Human Carbonic Anhydrase II Inhibitors” (ACS Med Chem Lett, 2020) one finds Ki data, which are given here for eleven molecules.

Broadly, the Ki is the dissociation constant of the complex between target and ligand, obtained from inhibition or displacement.

One assay has as its target Carbonic anhydrase 9 (Homo sapiens, UniProt Q16790).
The target of another assay is Carbonic anhydrase 2 (Homo sapiens, UniProt P00918). Description: Inhibition of recombinant human carbonic anhydrase 2 preincubated with enzyme for 10 mins by phenol red dye based stopped flow CO2 hydration assay.
In a further assay the target is Carbonic anhydrase 1 (Homo sapiens, UniProt P00915). Put plainly: Inhibition of recombinant human carbonic anhydrase 1 preincubated with enzyme for 10 mins by phenol red dye based stopped flow CO2 hydration assay.
Chain of Carbonic anhydrase 1 (P00915 whole entry): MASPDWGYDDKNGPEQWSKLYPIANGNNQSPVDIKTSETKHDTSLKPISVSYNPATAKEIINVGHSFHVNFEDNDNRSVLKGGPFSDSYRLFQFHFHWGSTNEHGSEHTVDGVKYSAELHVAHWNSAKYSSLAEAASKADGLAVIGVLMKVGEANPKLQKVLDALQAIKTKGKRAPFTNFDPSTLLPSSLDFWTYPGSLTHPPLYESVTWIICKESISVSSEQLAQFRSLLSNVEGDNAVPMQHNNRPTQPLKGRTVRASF

Each structure is given as a SMILES string.

Description for Carbonic anhydrase 9: Inhibition of recombinant human carbonic anhydrase 9 preincubated with enzyme for 10 mins by phenol red dye based stopped flow CO2 hydration assay

As for `NS(=O)(=O)c1ccc(-c2ccc(Cc3cccc(C(=O)O)c3)cc2)cc1`, the inhibitory constant (Ki) at Carbonic anhydrase 9 came out at 323 nM; on Carbonic anhydrase 2 it was 0.57 nM; at Carbonic anhydrase 1 it was 21.3 nM.

On to `Nc1ccccc1C(=O)c1ccc(-c2ccc(S(N)(=O)=O)cc2)cc1`, for which the figures for the Ki at Carbonic anhydrase 9, on Carbonic anhydrase 2 and at Carbonic anhydrase 1 were 289 nM, 31 nM and 218 nM, respectively.

`NS(=O)(=O)c1ccc(-c2ccc(C3OC(=O)c4ccccc43)cc2)cc1` (stereo not drawn): the inhibition constant (Ki) on Carbonic anhydrase 9 was determined as 249 nM; at Carbonic anhydrase 2, 0.7 nM; at Carbonic anhydrase 1, 80.1 nM.

Regarding `NS(=O)(=O)c1ccc(-c2ccc(Cc3ccccc3C(=O)O)cc2)cc1`, the inhibition constant Ki on Carbonic anhydrase 9 amounted to 437 nM; at Carbonic anhydrase 2, 0.69 nM; at Carbonic anhydrase 1, 6.8 nM.

For the molecule `Nc1ccccc1C(O)c1ccc(-c2ccc(S(N)(=O)=O)cc2)cc1` (stereo not drawn), the Ki on Carbonic anhydrase 9 was 92 nM; on Carbonic anhydrase 2 it was 0.97 nM; on Carbonic anhydrase 1, 8.4 nM.

As to `Nc1cccc(C(=O)c2ccc(-c3ccc(S(N)(=O)=O)cc3)cc2)c1`, the figures for the Ki at Carbonic anhydrase 9, on Carbonic anhydrase 2 and at Carbonic anhydrase 1 were 266 nM, 9.8 nM and 87.3 nM, respectively.

With `NS(=O)(=O)c1ccc(-c2ccc(C(=O)c3cccc(C(=O)O)c3)cc2)cc1`, the Ki was 491 nM at Carbonic anhydrase 9, 0.94 nM on Carbonic anhydrase 2 and 7.3 nM at Carbonic anhydrase 1.

Turning to `NS(=O)(=O)c1ccc(-c2ccc(C(=O)c3ccccc3C(=O)O)cc2)cc1`, the Ki at Carbonic anhydrase 9 is 469 nM; at Carbonic anhydrase 2, 0.83 nM; on Carbonic anhydrase 1 it was 39.4 nM.

As for `Nc1cccc(C(O)c2ccc(-c3ccc(S(N)(=O)=O)cc3)cc2)c1` (stereo not drawn), the Ki turned out to be 464 nM at Carbonic anhydrase 9, 0.78 nM on Carbonic anhydrase 2 and 33.1 nM at Carbonic anhydrase 1.

Take `Nc1cccc(Cc2ccc(-c3ccc(S(N)(=O)=O)cc3)cc2)c1`: the Ki at Carbonic anhydrase 9 came out at 556 nM; on Carbonic anhydrase 2, 0.92 nM; at Carbonic anhydrase 1, 5.9 nM.

For `NS(=O)(=O)c1ccc(-c2ccc(C(O)c3cccc(C(=O)O)c3)cc2)cc1` (stereo not drawn), the inhibitory constant (Ki) on Carbonic anhydrase 9 is 88.4 nM; on Carbonic anhydrase 2 it was 0.83 nM; at Carbonic anhydrase 1, 6.9 nM.
